From US6818670B2, “Active ingredient combination having insecticidal and acaricidal characteristics” (priority 1999, dated 2004)

How the values were obtained:
Type in all cases: in vivo
[1] = test system: Heliothis virescens caterpillars; assay: Heliothis virescens test (soya bean shoots, immersion); settings: single active compound, 0.32 ppm
Experimental: (§1) To produce a suitable active compound preparation, 1 part by weight of active compound is mixed with the stated amounts of solvent and emulsifier, and the concentrate is diluted with emulsifier-containing water to the desired concentration.
Soya bean shoots (Glycine max) are treated by immersion in the active compound preparation of the desired concentration and are populated with Heliothis virescens caterpillars while the leaves are still moist.
(§2) After the desired period, the destruction is determined in %. 100% means that all caterpillars have been killed; 0% means that none of the caterpillars have been killed. The kill figures determined are calculated using Colby's formula.

[2] = test system: fall army worm caterpillars (Spodoptera exigua); assay: Spodoptera exigua test (cabbage leaves, immersion); settings: single active compound, 8 ppm
Experimental: (§3) To produce a suitable preparation of active compound, 1 part by weight of active compound is mixed with the stated amounts of solvent and emulsifier, and the concentrate is diluted with emulsifier-containing water to the desired concentration.
Cabbage leaves (Brassica oleracea) are treated by immersion in the active compound preparation of the desired concentration and are populated with fall army worm caterpillars (Spodoptera exigua) while the leaves are still moist.
as §2

[3] = test system: common spider mite (Tetranychus urticae); assay: Tetranychus test (OP-resistant/spray treatment, bean plants); settings: single active compound, 0.32 ppm, OP-resistant, spray treatment
Experimental: OP-resistant/spray Treatment
as §1
Bean plants (Phaseolus vulgaris) which are severely infested with all stages of the common spider mite (Tetranychus urticae) are sprayed with an active compound preparation of the desired concentration.
After the desired period, the action is determined in %. 100% means that all spider mites have been killed; 0% means that none of the spider mites have been killed. The kill figures determined are calculated using Colby's formula.

[4] = test system: diamond-back moth caterpillars (Plutella xylostella); assay: Plutella test (cabbage leaves, immersion); settings: single active compound, 1.6 ppm
Experimental: as §1
Cabbage leaves (Brassica oleracea) are treated by immersion in the active compound preparation of the desired concentration and are populated with diamond-back moth caterpillars (Plutella xylostella) while the leaves are still moist.
as §2

[5] = test system: green rice leaf-hoppers (Nephotettix cincticeps); assay: Nephotettix test (rice seedlings, immersion); settings: single active compound, 0.32 ppm
Experimental: as §3
Rice seedlings (Oryza sativa) are treated by immersion in the active compound preparation of the desired concentration and are populated with green rice leaf-hoppers (Nephotettix cincticeps) while the leaves are still moist.
After the desired period, the destruction is determined in %. 100% means that all leafhoppers have been killed; 0% means that none of the leafhoppers have been killed. The kill figures determined form the basis for calculations with Colby's formula.

SMILES | Percentage destruction after 3 days [1] [%] | Percentage destruction after 6 days [2] [%] | Percentage destruction after 14 days [3] [%] | Percentage destruction after 3 days [4] [%] | Percentage destruction after 6 days [5] [%]
CCC(C)(C)C(=O)OC1=C(c2ccc(Cl)cc2Cl)C(=O)OC12CCCCC2 [Ex. (I-b-1)] | 0 | 0 | 0 | 0 | 0
COP(N)(=O)SC (stereo not shown) [Methamidophos, methamidophos] |  |  | 0 |  | 
CC1(C)C(C=C(Cl)Cl)C1C(=O)OC(C#N)c1ccc(F)c(Oc2ccccc2)c1 (stereo not shown) [Betacyfluthrin, betacyfluthrin] | 75 | 90 |  | 80 | 50
